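Where inhibition never reached the appropriate level, the endpoint shown equals the highest concentration tested. Otherwise, values were interpolated linearly from a five-concentration, 48-hour dose response in 96-well plates. At the GI50, growth is halved.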 Calls of active or inactive are those of the source. Rule as the data show it: active = GI50 up to about 1.1 µM and inactive = higher.
Tests used:
Experiment in all cases: NCI anticancer screen, dose series, 48 h
MCF7 = system: MCF7
OVCAR-8 = system: OVCAR-8
Malme-3M = system: Malme-3M
PC-3 = system: PC-3
SF-268 = system: SF-268
MOLT-4 = system: MOLT-4
HCT-116 = system: HCT-116
HOP-62 = system: HOP-62
OVCAR-4 = system: OVCAR-4
UACC-257 = system: UACC-257
786-0 = system: 786-0
MDA-MB-231 = system: MDA-MB-231
SW-620 = system: SW-620
UO-31 = system: UO-31
HCT-15 = system: HCT-15
HOP-92 = system: HOP-92
M14 = system: M14
SF-539 = system: SF-539
RXF 393 = system: RXF 393
CCRF-CEM = system: CCRF-CEM

Row | SMILES | GI50 (MCF7) | GI50 (OVCAR-8) | GI50 (Malme-3M) | GI50 (PC-3) | GI50 (SF-268) | GI50 (MOLT-4) | GI50 (HCT-116) | GI50 (HOP-62) | GI50 (OVCAR-4) | GI50 (UACC-257) | GI50 (786-0) | GI50 (MDA-MB-231) | GI50 (SW-620) | GI50 (UO-31) | GI50 (HCT-15) | GI50 (HOP-92) | GI50 (M14) | GI50 (SF-539) | GI50 (RXF 393) | GI50 (CCRF-CEM)
1 | Cc1ccc(S(=O)(=O)c2ccsc2NC(=O)c2ccccc2)cc1 | > 26.7 µM (inactive) | 28.6 µM (inactive) | > 100 µM (inactive) | > 81.5 µM (inactive) | 31.3 µM (inactive) | > 100 µM (inactive) | > 100 µM (inactive) | 17 µM (inactive) | 20.9 µM (inactive) | > 100 µM (inactive) | 23 µM (inactive) | 14.8 µM (inactive) | > 100 µM (inactive) | > 49.3 µM (inactive) | > 100 µM | 26.7 µM (inactive) | > 100 µM (inactive) | 15.4 µM (inactive) | – | –
2 | O=C(/N=C1/OC(CN2CCOCC2)CN1C(=O)Nc1ccccc1)Nc1ccccc1 (stereo unspecified) | > 100 µM (inactive) | > 100 µM (inactive) | > 100 µM (inactive) | > 100 µM (inactive) | > 100 µM (inactive) | > 100 µM (inactive) | > 100 µM (inactive) | > 100 µM (inactive) | > 100 µM (inactive) | > 100 µM (inactive) | > 100 µM (inactive) | > 100 µM (inactive) | > 100 µM (inactive) | > 100 µM (inactive) | > 100 µM | 94.6 µM (inactive) | > 100 µM (inactive) | – | > 100 µM (inactive) | > 100 µM (inactive)
3 | N#CC(C#N)=C(N)/C(C#N)=C/c1ccc2ccccc2n1 | 30.7 µM (inactive) | 30.5 µM (inactive) | 96.8 µM (inactive) | 26.2 µM (inactive) | > 100 µM (inactive) | 30.3 µM (inactive) | 15.1 µM (inactive) | 16 µM (inactive) | 35.4 µM (inactive) | 48.8 µM (inactive) | 17.9 µM (inactive) | 23.7 µM (inactive) | > 10 µM (inactive) | 15.5 µM (inactive) | 28.8 µM | 18.3 µM (inactive) | 33.7 µM (inactive) | – | 20 µM (inactive) | 24.1 µM (inactive)
4 | COc1ccccc1NC(=S)Nc1cc(C)cc(C)n1 | > 100 µM (inactive) | > 100 µM (inactive) | > 100 µM (inactive) | > 89.9 µM (inactive) | > 100 µM (inactive) | > 100 µM (inactive) | > 100 µM (inactive) | > 63 µM (inactive) | > 100 µM (inactive) | > 100 µM (inactive) | > 100 µM (inactive) | > 100 µM (inactive) | > 100 µM (inactive) | > 100 µM (inactive) | > 100 µM | – | > 100 µM (inactive) | > 100 µM (inactive) | > 100 µM (inactive) | > 100 µM (inactive)
5 | CCCCCCCCCCCCCCCCCCNc1nc(=O)n(C2CC(OP(=O)(O)OCC3OC(n4cc(F)c(=O)[nH]c4=O)CC3O)C(CO)O2)cc1F (stereo unspecified) | 9.86 µM (inactive) | 17.5 µM (inactive) | – | 22.6 µM (inactive) | 12.4 µM (inactive) | 14.7 µM (inactive) | 47.1 µM (inactive) | 15.2 µM (inactive) | > 100 µM (inactive) | 61 µM (inactive) | 49.4 µM (inactive) | > 100 µM (inactive) | 18.8 µM (inactive) | 13.5 µM (inactive) | 37.5 µM | 5.33 µM (inactive) | 19.5 µM (inactive) | 6.67 µM (inactive) | 11.4 µM (inactive) | 12.9 µM (inactive)
6 | CC(C)CNP(=O)(NCC(C)C)Oc1ccc(CC(NC(=O)OCc2ccccc2)C(=O)OCc2ccccc2)cc1 (stereo unspecified) | 11.1 µM (inactive) | 17.3 µM (inactive) | 19.1 µM (inactive) | 17.1 µM (inactive) | 17.6 µM (inactive) | 13.9 µM (inactive) | 18.7 µM (inactive) | 14.7 µM (inactive) | 18.3 µM (inactive) | 24.8 µM (inactive) | 13.6 µM (inactive) | 17.7 µM (inactive) | 20.4 µM (inactive) | 20.3 µM (inactive) | 26.9 µM | 61.4 µM (inactive) | 24.3 µM (inactive) | – | 18.5 µM (inactive) | 4.99 µM (inactive)
7 | O=[N+]([O-])c1ccc(CSc2nn(Cc3ccc([N+](=O)[O-])cc3)cc3ncnc2-3)cc1 | 27.9 µM (inactive) | 33.2 µM (inactive) | 27.4 µM (inactive) | 35.5 µM (inactive) | – | 23.5 µM (inactive) | 37.1 µM (inactive) | 31.8 µM (inactive) | 52.5 µM (inactive) | 29 µM (inactive) | 47.5 µM (inactive) | 34.4 µM (inactive) | 21.7 µM (inactive) | 12.1 µM (inactive) | 43.1 µM | 0.361 µM (active) | 34.8 µM (inactive) | 32 µM (inactive) | – | > 10 µM (inactive)
8 | CC1(C)OC2OC(COC(=O)c3ccc(C#N)cc3)C3OC(C)(C)OC3C2O1 (stereo unspecified) | > 75 µM (inactive) | > 75 µM (inactive) | 61 µM (inactive) | > 75 µM (inactive) | > 75 µM (inactive) | > 75 µM (inactive) | > 75 µM (inactive) | > 75 µM (inactive) | > 75 µM (inactive) | > 75 µM (inactive) | > 75 µM (inactive) | > 75 µM (inactive) | > 75 µM (inactive) | 46.9 µM (inactive) | > 75 µM | – | > 75 µM (inactive) | > 75 µM (inactive) | > 75 µM (inactive) | 50.7 µM (inactive)
9 | COC1=CC(=O)N(C)C(O)C1(C#N)OC1OC(CO)C(O)C(O)C1O (stereo unspecified) | > 100 µM (inactive) | > 100 µM (inactive) | – | > 100 µM (inactive) | > 100 µM (inactive) | > 100 µM (inactive) | > 100 µM (inactive) | > 100 µM (inactive) | > 100 µM (inactive) | > 100 µM (inactive) | > 100 µM (inactive) | > 100 µM (inactive) | > 100 µM (inactive) | > 100 µM (inactive) | > 100 µM | > 100 µM (inactive) | > 100 µM (inactive) | > 100 µM (inactive) | – | > 10 µM (inactive)
10 | N#Cc1c(-c2ccc(Cl)cc2)[nH]c(=O)n(C2OC(CO)C(O)C(O)C2O)c1=O (stereo unspecified) | > 100 µM (inactive) | > 100 µM (inactive) | – | > 100 µM (inactive) | > 100 µM (inactive) | > 100 µM (inactive) | > 100 µM (inactive) | > 100 µM (inactive) | > 100 µM (inactive) | > 100 µM (inactive) | > 100 µM (inactive) | > 100 µM (inactive) | > 100 µM (inactive) | > 100 µM (inactive) | > 100 µM | 26.2 µM (inactive) | > 100 µM (inactive) | > 100 µM (inactive) | > 100 µM (inactive) | > 100 µM (inactive)
11 | Cn1c2ccccc2c2c3c(c4c5ccccc5n(C)c4c21)C(=O)N(c1ccccc1)C3=O | > 100 µM (inactive) | > 100 µM (inactive) | > 100 µM (inactive) | > 100 µM (inactive) | – | > 100 µM (inactive) | > 100 µM (inactive) | > 100 µM (inactive) | > 100 µM (inactive) | > 100 µM (inactive) | > 100 µM (inactive) | > 100 µM (inactive) | > 100 µM (inactive) | > 100 µM (inactive) | > 100 µM | > 100 µM (inactive) | > 100 µM (inactive) | > 100 µM (inactive) | – | > 100 µM (inactive)
12 | CC(=O)OCC(=O)[C@@]12OC(C)(C)O[C@@H]1C[C@H]1[C@@H]3CC=C4C[C@@H](O)CC[C@]4(C)[C@H]3CC[C@@]12C | > 100 µM (inactive) | 36.7 µM (inactive) | > 100 µM (inactive) | > 100 µM (inactive) | 31.6 µM (inactive) | > 100 µM (inactive) | 68.1 µM (inactive) | 32.2 µM (inactive) | > 100 µM (inactive) | > 100 µM (inactive) | 41.4 µM (inactive) | 61.5 µM (inactive) | > 100 µM (inactive) | > 100 µM (inactive) | > 100 µM | – | > 100 µM (inactive) | 30.8 µM (inactive) | 19.9 µM (inactive) | > 100 µM (inactive)
13 | CCSc1[nH]c(/N=C(/NC(=O)c2ccccc2)NC(C)C)c(C(N)=O)c1C(N)=O | > 10 µM (inactive) | > 10 µM (inactive) | > 10 µM (inactive) | > 10 µM (inactive) | > 10 µM (inactive) | > 10 µM (inactive) | – | – | > 10 µM (inactive) | > 10 µM (inactive) | > 10 µM (inactive) | > 10 µM (inactive) | > 10 µM (inactive) | – | > 10 µM | > 10 µM (inactive) | > 10 µM (inactive) | – | > 10 µM (inactive) | > 10 µM (inactive)
14 | C[C@H]1CN[C@@H]2[C@@H](C)[C@H]3[C@@H](C[C@H]4[C@@H]5CC[C@H]6C[C@@H](N)CC[C@]6(C)[C@H]5CC[C@]34C)O[C@@]2(O)C1 | 4.18 µM (inactive) | 2.04 µM (inactive) | 1.64 µM (inactive) | 2.79 µM (inactive) | 1.5 µM (inactive) | 1.69 µM (inactive) | 1.29 µM (inactive) | – | 3.75 µM (inactive) | 1.85 µM (inactive) | 1.69 µM (inactive) | 1.9 µM (inactive) | 2.25 µM (inactive) | 2.25 µM (inactive) | 1.38 µM | 2.47 µM (inactive) | 2.04 µM (inactive) | 1.27 µM (inactive) | – | 0.561 µM (active)
15 | CCOC(=O)CNC(=O)C(CSC(=O)N(O)c1ccc(Cl)cc1)NC(=O)CCC(N)C(=O)OCC (stereo unspecified) | > 50 µM (inactive) | > 50 µM (inactive) | – | > 50 µM (inactive) | 1.88 µM (inactive) | 19.3 µM (inactive) | > 50 µM (inactive) | 24.3 µM (inactive) | – | > 50 µM (inactive) | > 50 µM (inactive) | 21 µM (inactive) | 14.8 µM (inactive) | > 50 µM (inactive) | > 50 µM | 3.98 µM (inactive) | 34.8 µM (inactive) | > 50 µM (inactive) | > 50 µM (inactive) | > 50 µM (inactive)

Reference: ChEMBL document CHEMBL1201862, “PubChem BioAssay data set” (2004)
